According to US20020142347A1, “Biosensor” (BIOSENSOR ApS, priority 2000, published 2002):
Values joined by “and” are separate entries in the source; they are usually repeats but may differ in a detail not shown here. Identical values can stand only once. Like-named read-outs stand apart in the source and are kept apart here.

T1: FACI-24 (Bos taurus, UniProt P07107, M25C)
T1 construct: made in house; host or cells: E. coli BL21(DE3)pLysS, pET3a vector
T1 sequence (P07107 2-87 M25C): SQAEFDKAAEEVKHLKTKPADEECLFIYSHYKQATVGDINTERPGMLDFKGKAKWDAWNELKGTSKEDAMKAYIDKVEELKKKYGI

T2: native bovine ACBP (Bos taurus, UniProt P07107)
T2 sequence (P07107 1-87): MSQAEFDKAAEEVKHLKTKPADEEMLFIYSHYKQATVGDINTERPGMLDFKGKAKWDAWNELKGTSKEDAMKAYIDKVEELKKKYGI

T3: FACI53 (Bos taurus, UniProt P07107, A54C)
T3 construct: badan (6-bromoacetyl-2-dimethylaminonaphthalene) fluorophore on the introduced Cys-53; made in house; host or cells: E. coli BL21(DE3)pLysS, pET3a vector
T3 sequence (P07107 2-87 A54C): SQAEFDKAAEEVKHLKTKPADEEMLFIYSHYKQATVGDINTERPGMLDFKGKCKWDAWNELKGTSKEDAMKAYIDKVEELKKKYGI


Columns and labels:
[1] = target: T1, FACI-24; experiment: Fluorescence titration equilibrium binding analysis of CoA and acyl-CoA esters to FACI-24; set-up: species or system bovine
Description: Development of a mathematical expression describing the relationship between acyl-CoA concentration and FACI-24 fluorescence was performed essentially as by Richieri et al 1992, J Biol Chem, 267:23495-23501. However, where ligand binding to ADIFAB induces both a fluorescence intensity increase around 505 nm and a fluorescence intensity decrease around 432 nm, ligand binding to FACI-24 only causes an increase in fluorescence around 460 nm.
Derivatisation of an expression for the fluorescence value as a function of the acyl-coA concentration was done using the Scatchard equation as a starting point: [formula]
which has been used to fit the titration data.
The curves represent the best fit analysis from two independent experiment calculated and normalized as described above. The FACI-24 binding affinity increases dramatically when the acyl-chain length increases from C8 to C10 and C12, a smaller but significant drop in Kd is seen by increasing chain length from C12 to C14. C14 to C18 saturated acyl-CoA esters and C18:1-CoA binds with similar and very high affinities to FACI-24. In >0.1 M salt, FACI-24 binds acyl-CoAs with higher affinity and similar specificity as native unmodified bovine ACBP. The Kd for binding of C12-CoA and C16-CoA to native ACBP is 40 and 2.0 nM, respectively (Fulcery et al Biochemical, 1997, 325:423-428; Færgeman et al 1996, Biochemistry, 35:14118-14126). FACI-24 is highly specific for binding long-chain acyl-CoA esters.
(§1) Titration of FACI with acyl-CoAs was done using a SPEX FLOUROLOG (Industries Inc, Edison N.J., USA) with excitation at 387 nm and emission at 460 nm, with both excitation and emission slits set to 4.5 nm. FACI (0.5-4.5 uM, as indicated) was dissolved in 1.5 ml binding buffer (10 mM HEPES 150 mM NaCl, 5 mM KCl, 1 mM Na2HPO4, pH 7.4) and titrated with a 10 μM acyl-CoA dissolved in binding buffer, with or without FACI added, as indicated. Fluorescence emission values (counts per second) measured without FACI added to the ligand stock solution were corrected for titrand dilution.
Up to four parameters were fitted in this way, these were B, representing the point of saturation on the X axis, H, representing the maximum fluorescence, i.e. the fluorescence at saturating concentration of acyl-CoA, L, the minimum fluorescence value, i.e. the fluorescence of FACI-24 alone in buffer, and K, the Kd value lor the acyl-CoA in question. Initial estimates for the fittable parameters were typically: B=1, H=maximum fluorescence value measured, L=minimum fluorescence value measured (at acyl-CoA-concentration=0), and K as judged from the raw data, typically from 0.0001 uM to 0.1 uM for acyl-CoA longer than C10:0-CoA.
For each acyl-CoA at least two titrations and fittings were performed. To consider two or more titrations of the same acyl-CoA together and obtain a Kd value using all these titrations, both axes of the raw data were standardised using the fitted values of B, H and L in this way:
X axis standard=(raw X axis values)/Bfitted
Y axis standard=[(raw Y axis values)−Lfitted]/[Hfitted−Lfitted]
In this way all Y axis values should come to lie between 0 and 1 and the X axis value should be 1 at the point of saturation (FACI-24:acyl-CoA 1:1). Such adjusted data were pooled and fitted using DataFit. Typically, both H and B fitted to values close to 1 and L fitted to values close to 0. K was typically fitted to values somewhere between the two values obtained for the raw data.
This could be overcome by removing B from the fittable parameters list and instead setting it to a constant value of 1 and fitting again. This was typically done for both the raw and the standardised data.

[2] = target: T2, native bovine ACBP; settings: literature, read-out: KD for binding to native bovine ACBP, cited from earlier work
[3] = target: T1, FACI-24; experiment: Fluorescence emission change of FACI-24 on titration with CoA and acyl-CoA esters; type: binding, bovine; settings: for Downshift in emission maximum of FACI-24: emission maximum without ligand 510 nm, excitation 400 nm
Description: (§2) Quantitative determination of binding affinities (KD) were performed by isothermal titration micro calorimetry as previously described (Faergeman et. al., 1996; Biochemistry 35, 14118-14126). Qualitative evaluation of relative binding affinities were determined by isoelectrical focusing using the Pharmacia Fast Gel system according to the prescriptions given by the manufacture. Fluorescence emission changes induced by acyl-CoA binding to badan modified protein were determined as follows: 5 μl portions of acyl-CoAs were added from stock solutions disolved in binding buffer, (10 mM Hepes, 150 mM NaCL, 1 mM NaHPO4, pH 7.4) containing 3.4 μM Badan derivatized protein to a 1 ml 3.4 μM solution of the Badan derivatized ACBP in the same buffer. The fluorescence emission was measured on a SPEX FLOUROLOG (Industries Inc, Edison N.J., USA) with excitation at 400 nm and emission scan from 400 nm to 550 nm. The concentration of acyl-CoA in the aqueous phase was determined from the fluorescence emission sensitivities at 495 and 470 nm repectively essentially by the method described by (Grynkiewickz et. al.,1985, J. Biol. Chem. 260, 3440-3450) according to which:
(§3) Fluorescence titration emission spectra from 415 nm to 550 nm (excitation at 400 nm) were performed for CoA, C4:0-, C8:0-, C12:0-, C16:0-, and C20:0-CoA with all four mutated and badan modified proteins.
The emission maximum of FACI-24 without ligand added was 510 nm and titration with CoA, C4:0-, C8:0-, C12:0-, […], C16:0- and C20:0-CoA caused 0, 16, 34, 42, 46 and 46 nm downshift in emission maximum, respectively (results not shown). C16:0-CoA induced a 5,5 fold increase in emission at 464 nm (FIG. 10).
as §1

[4] = target: T3, FACI53; experiment: Fluorescence emission change of FACI-53 on titration with CoA and acyl-CoA esters; type: binding, bovine; settings: for Fluorescence emission maximum of FACI-53 with ligand: 525 nm when no ligand present, excitation 400 nm; for Relative emission of FACI-53 at 495 nm, fold increase: emission at 495 nm
Description: as §2, §3
Titration of FACI-53 dissolved in binding buffer with the above mentioned acyl-CoA esters produced a smooth downward shift in fluorescence emission maximum from 525 nm when no ligand was present to 508, 503, 490, 492, 496 and 514 with increasing concentrations of CoA, C4:0-, C8:0-, C12:0-, C16:0- and C20:0-CoA respectively.

[5] = target: T3, FACI53; experiment: Isoelectrical focusing of acyl-CoA binding to FACI53; set-up: species or system bovine; settings: ligand in four-fold molar excess over protein
Description: All the gels were prepared with ligands (1-7) in four-fold molar excess over protein. […] The protein-ligand complex shifted to a pl around 3.8. Legend: 1: Water, 2: CoA-SH, 3: C4-CoA, 4: C8-CoA, 5: C12-CoA, 6: C16-CoA, 7: C20-CoA, 8: Broad pl Calibration Kit (pH 3-10).
as §2, with “The concentration of acyl-CoA in the aqueous phase was determined from the fluorescence emission sensitivities at 495 and 470 nm repectively essentially by the method described by (Grynkiewickz et. al.,1985, J. Biol. Chem. 260, 3440-3450) according to which:” left out

[6] = FACI-24 (1.5 μM) titrated with increasing CoA and acyl-CoA concentration, fitted binding curves, emission 460 nm, read-out: Kd (nM) ± S.E.

Row | Molecule | Kd [1, 6] [nM] | Downshift in emission maximum of FACI-24 [3] [nm] | Magnitude of emission of FACI-53, fold increase [4] [fold] | Fluorescence emission maximum of FACI-53 with ligand [4] [nm] | Relative emission of FACI-53 at 495 nm, fold increase [4] [fold] | other results
1 | CCCCCCCCCCCCCC(=O)SCCNC(=O)CCNC(=O)[C@H](O)C(C)(C)COP(=O)(O)OP(=O)(O)OC[C@H]1O[C@@H](n2cnc3c(N)ncnc32)[C@H](O)[C@@H]1OP(=O)(O)O [C14:0-CoA] | 1.66 ± 0.26 |  |  |  |  | Kd ([1]; titration equilibrium analysis, >0.1 M salt, read-out: KD for binding to FACI24): 1.7 nM; Kd ([2]; isothermal titration microcalorimetry, >0.1 M salt): 0.016 µM
2 | CCCC(=O)SCCNC(=O)CCNC(=O)[C@H](O)C(C)(C)COP(=O)(O)OP(=O)(O)OC[C@H]1O[C@@H](n2cnc3c(N)ncnc32)[C@H](O)[C@@H]1OP(=O)(O)O [C4:0-CoA] | 1500 ± 223 | 16 | 1.8 | 503 | 2.8 | 
3 | CCCCCCCCCCCCCCCCCC(=O)SCCNC(=O)CCNC(=O)[C@H](O)C(C)(C)COP(=O)(O)OP(=O)(O)OC[C@H]1O[C@@H](n2cnc3c(N)ncnc32)[C@H](O)[C@@H]1OP(=O)(O)O [C18:0-CoA] | 1.65 ± 0.83 |  |  |  |  | 
4 | C18:1-CoA | 0.59 ± 0.19 |  |  |  |  | 
5 | CCCCCCCC(=O)SCCNC(=O)CCNC(=O)[C@H](O)C(C)(C)COP(=O)(O)OP(=O)(O)OC[C@H]1O[C@@H](n2cnc3c(N)ncnc32)[C@H](O)[C@@H]1OP(=O)(O)O [C8:0-CoA] | 342 ± 31.9 | 34 | 2.9 | 490 | 4.8 | 
6 | CC(C)(COP(=O)(O)OP(=O)(O)OC[C@H]1O[C@@H](n2cnc3c(N)ncnc32)[C@H](O)[C@@H]1OP(=O)(O)O)[C@@H](O)C(=O)NCCC(=O)NCCS [CoASH, Coenzyme A] | 2450 ± 249 | 0 | 1.1 | 508 | 1.5 | Kd ([1]; read-out: Kd for binding to FACI-24): 2500 nM and 2000 nM; Fluorescence response of FACI-24 [3]: Neither FACI24 or FACI53 respond significantly; Fold increase in FACI-24 fluorescence emission at 460 nm ([3]; emission at 460 nm): 3 fold; Fluorescence response of FACI-53 ([4]; listed as CoA): hardly responded; Fluorescence response of FACI-53 ([4]; listed as free CoA): Neither FACI24 or FACI53 respond significantly; Kd [2]: 2 µM
7 | CCCCCCCCCCCCCCCCCCCC(=O)SCCNC(=O)CCNC(=O)[C@H](O)C(C)(C)COP(=O)(O)OP(=O)(O)OC[C@H]1O[C@@H](n2cnc3c(N)ncnc32)[C@H](O)[C@@H]1OP(=O)(O)O [C20:0-CoA] |  | 46 | 0.8 | 514 | 0.8 | Fluorescence response of FACI-53 [4]: hardly responded; Binding to FACI53 by isoelectrical focusing [5]: shown to bind
8 | CCCCCCCCCC(=O)SCCNC(=O)CCNC(=O)[C@H](O)C(C)(C)COP(=O)(O)OP(=O)(O)OC[C@H]1O[C@@H](n2cnc3c(N)ncnc32)[C@H](O)[C@@H]1OP(=O)(O)O [C10:0-CoA] | 61.8 ± 2.49 |  |  |  |  | 
9 | FACI-53: badan derivative of A53C-bovine ACBP (Fluorescent Acyl-CoA Indicator 53) (conjugate, UniProt P07107 2-87, looked up, variant A53C, badan label) Acyl-CoA-binding protein: SQAEFDKAAEEVKHLKTKPADEEMLFIYSHYKQATVGDINTERPGMLDFKGKCKWDAWNELKGTSKEDAMKAYIDKVEELKKKYGI |  |  |  |  |  | Emission maximum of FACI53 on titration with ligand ([4]; FIG. 3): 487 nm; Fluorescence emission maximum of FACI-53, no ligand present ([4]; no ligand): 525 nm
10 | FACI-24: badan derivative of M24C-bovine ACBP (Fluorescent modified Acyl-CoA Indicator 24) (conjugate, UniProt P07107 2-87, looked up, variant M24C, badan label) Acyl-CoA-binding protein: SQAEFDKAAEEVKHLKTKPADEECLFIYSHYKQATVGDINTERPGMLDFKGKAKWDAWNELKGTSKEDAMKAYIDKVEELKKKYGI |  |  |  |  |  | Emission maximum of FACI24 on titration with ligand ([3]; FIG. 2): 465 nm; Emission maximum of FACI-24 without ligand added ([3]; no ligand): 510 nm
